# According to patent US20260026505A1, “HERBICIDAL COMPOSITIONS” (SYNGENTA CROP PROTECTION AG, priority 2022, published 2026):
# Several values for one entry are separate records, joined by “and”; a condition that tells them apart may be missing. Equal entries are not always repeated.
# Experiments:
# Assay type in all cases: in vivo
# Settings in all cases: after 13 days
# [1] = system: Abutilon theophrasti (ABUTH); assay: Glasshouse herbicide test, sprayed 1 day after sowing, visual percentage phytotoxicity, Colby synergy
# Method: (§1) Seeds of Amaranthus retroflexus (AMARE), Echinochloa crus-galli (ECHCG), Digitaria sanguinalis (DIGSA), Lolium perenne (LOLPE), Alopecurus myosuroides (ALOMY), Chenopodium album (CHEAL), Setaria faberi(SETFA), Abutilon theophrasti(ABUTH), Setaria viridis (SETVI) and Ipomoea hederacea (IPOHE) were sown in standard sterilised soil in pots. After cultivation for 1 day under controlled conditions in a glasshouse (at 24/16° C., day/night; 14 hours light; 65% humidity), the plants were sprayed at 500 l/Ha with an aqueous spray solution derived from the formulation of the technical active ingredients in a small amount of acetone and a solvent and emulsifier mixture referred to as IF50 (11.12% Emulsogen EL360 TM+44.44% N-methylpyrrolidone+44.44% Dowanol DPM glycol ether), to create a 50 g/l solution which was then diluted using 0.2% Genapol X080 (CAS Number: 9043-30-5) as diluent to give the desired final dose of test compound. Where active ingredients were applied as mixtures, aqueous spray solutions were prepared as above, containing both active ingredients. The test plants were then grown under controlled conditions in a glasshouse (at 24/16° C., day/night; 14 hours light; 65% humidity) and watered twice daily. After 13 days, the test was evaluated visually for percentage phytotoxicity to the plants (where 100=total damage to plant; 0=no damage to plant) when compared to control untreated plants. Two to four replicates were applied for each treatment in a randomised block test design.
# (§2) 22., E=X+Y−(X*Y/100), where • X=average percent phytotoxicity of herbicide A when applied at a certain rate • Y=average percent phytotoxicity using herbicide B when applied at a certain rate • E=the expected effect of the mixture of herbicides A and B as calculated from the Colby formula.
# [2] = system: Alopecurus myosuroides (ALOMY); assay: as above
# Method: as §1, §2
# [3] = system: Amaranthus retroflexus (AMARE); assay: as above
# Method: as §1, §2
# [4] = system: Digitaria sanguinalis (DIGSA); assay: as above
# Method: as §1, §2
# [5] = system: Echinochloa crus-galli (ECHCG); assay: as above
# Method: as §1, §2
# [6] = system: Ipomoea hederacea (IPOHE); assay: as above
# Method: as §1, §2
# Setaria faberi (SETFA) = assay: as above
# Method: as §1, §2
# [7] = system: Chenopodium album (CHEAL); assay: as above
# Method: as §1, §2
# Lolium perenne (LOLPE) = assay: as above
# Method: as §1, §2
# Setaria viridis (SETVI) = assay: as above
# Method: as §1, §2
# [8] = Glasshouse herbicide test, first A + B-20 table, weed species not given
# Method: as §1, §2
smiles,measurement,setting,value
CS(=O)(=O)c1ccc(C(=O)C2C(=O)CCCC2=O)c([N+](=O)[O-])c1 [Compound B-4],Observed (percentage phytotoxicity),[1]; 3.91 g/ha,78%
same,Observed (percentage phytotoxicity),[2]; 3.91 g/ha,0%
same,Observed (percentage phytotoxicity),[2]; 7.81 g/ha,3%
same,Observed (percentage phytotoxicity),[3]; 3.91 g/ha,53%
same,Observed (percentage phytotoxicity),[3]; 7.81 g/ha,85%
same,Observed (percentage phytotoxicity),[3]; 15.63 g/ha,85%
same,Observed (percentage phytotoxicity),[3]; 31.25 g/ha,85%
same,Observed (percentage phytotoxicity),[4]; 3.91 g/ha,70%
same,Observed (percentage phytotoxicity),[5]; 3.91 g/ha,5%
same,Observed (percentage phytotoxicity),[6]; 3.91 g/ha,10%
same,Observed (percentage phytotoxicity),Setaria faberi (SETFA); 3.91 g/ha,5%
same,Observed (percentage phytotoxicity),Setaria faberi (SETFA); 7.81 g/ha,3%
same,Observed (percentage phytotoxicity),Setaria faberi (SETFA); 15.63 g/ha,8%
CC(C)N(C(=O)COc1nnc(C(F)(F)F)s1)c1ccc(F)cc1 [Compound B-16],Observed (percentage phytotoxicity),[1]; 15.63 g/ha,23%
same,Observed (percentage phytotoxicity),[3]; 31.25 g/ha,70%
same,Observed (percentage phytotoxicity),[7]; 15.63 g/ha,48%
same,Observed (percentage phytotoxicity),[6]; 3.91 g/ha,5%
same,Observed (percentage phytotoxicity),[6]; 7.81 g/ha,8%
same,Observed (percentage phytotoxicity),Lolium perenne (LOLPE); 3.91 g/ha,45%
CCCN(CCC)C(=O)SCc1ccccc1 [Compound B-7],Observed (percentage phytotoxicity),[1]; 62.5 g/ha,8%
same,Observed (percentage phytotoxicity),[1]; 125 g/ha,15%
same,Observed (percentage phytotoxicity),[2]; 125 g/ha,15%
same,Observed (percentage phytotoxicity),[2]; 250 g/ha,10%
same,Observed (percentage phytotoxicity),[3]; 62.5 g/ha,48%
same,Observed (percentage phytotoxicity),[3]; 250 g/ha,45%
same,Observed (percentage phytotoxicity),[7]; 62.5 g/ha,9%
same,Observed (percentage phytotoxicity),[7]; 125 g/ha,15%
same,Observed (percentage phytotoxicity),[7]; 250 g/ha,15%
same,Observed (percentage phytotoxicity),[4]; 62.5 g/ha,13%
same,Observed (percentage phytotoxicity),[4]; 125 g/ha,3%
same,Observed (percentage phytotoxicity),[6]; 31.25 g/ha,10%
same,Observed (percentage phytotoxicity),[6]; 62.5 g/ha,5%
same,Observed (percentage phytotoxicity),[6]; 125 g/ha,8%
same,Observed (percentage phytotoxicity),[6]; 250 g/ha,20%
same,Observed (percentage phytotoxicity),Lolium perenne (LOLPE); 62.5 g/ha,10%
same,Observed (percentage phytotoxicity),Lolium perenne (LOLPE); 125 g/ha,8%
same,Observed (percentage phytotoxicity),Lolium perenne (LOLPE); 250 g/ha,10%
same,Observed (percentage phytotoxicity),Setaria viridis (SETVI); 31.25 g/ha,5%
same,Observed (percentage phytotoxicity),Setaria viridis (SETVI); 125 g/ha,8%
Cn1nc(C(F)(F)F)c(CS(=O)(=O)C2=NOC(C)(C)C2)c1OC(F)F [Compound B-9],Observed (percentage phytotoxicity),[1]; 3.91 g/ha,40%
same,Observed (percentage phytotoxicity),[1]; 7.81 g/ha,55%
same,Observed (percentage phytotoxicity),[3]; 1.95 g/ha,40%
same,Observed (percentage phytotoxicity),[4]; 1.95 g/ha,13%
same,Observed (percentage phytotoxicity),[4]; 3.91 g/ha,43%
same,Observed (percentage phytotoxicity),[4]; 7.81 g/ha,65%
same,Observed (percentage phytotoxicity),[6]; 7.81 g/ha,53%
same,Observed (percentage phytotoxicity),[6]; 15.63 g/ha,73%
same,Observed (percentage phytotoxicity),Lolium perenne (LOLPE); 1.95 g/ha,14%
same,Observed (percentage phytotoxicity),Lolium perenne (LOLPE); 3.91 g/ha,40%
same,Observed (percentage phytotoxicity),Lolium perenne (LOLPE); 7.81 g/ha,44%
same,Observed (percentage phytotoxicity),Lolium perenne (LOLPE); 15.63 g/ha,48%
same,Observed (percentage phytotoxicity),Lolium perenne (LOLPE); 31.25 g/ha,66%
O=C(Nc1ccc(F)cc1F)c1cccnc1Oc1cccc(C(F)(F)F)c1 [Compound B-20],Observed (percentage phytotoxicity),[1]; 3.91 g/ha,8%
same,Observed (percentage phytotoxicity),[1]; 15.63 g/ha,20%
same,Observed (percentage phytotoxicity),[1]; 31.25 g/ha,18%
same,Observed (percentage phytotoxicity),[7]; 15.63 g/ha,8%
same,Observed (percentage phytotoxicity),[4]; 31.25 g/ha,68%
same,Observed (percentage phytotoxicity),[5]; 15.63 g/ha,10%
same,Observed (percentage phytotoxicity),[6]; 31.25 g/ha,5%
same,Observed (percentage phytotoxicity),[8]; 15.63 g/ha,23%
same,Observed (percentage phytotoxicity),[8]; 31.25 g/ha,23%
CC1(C)CON(Cc2ccc(Cl)cc2Br)C1=O [A],Observed (percentage phytotoxicity),[1]; 7.81 g/ha,6%
same,Observed (percentage phytotoxicity),[1]; 31.25 g/ha,5% and 11%
same,Observed (percentage phytotoxicity),[1]; 125 g/ha,31%
same,Observed (percentage phytotoxicity),[2]; 7.81 g/ha,5%
same,Observed (percentage phytotoxicity),[2]; 15.63 g/ha,10%
same,Observed (percentage phytotoxicity),[2]; 31.25 g/ha,21% and 16%
same,Observed (percentage phytotoxicity),[2]; 62.5 g/ha,40%
same,Observed (percentage phytotoxicity),[2]; 125 g/ha,68%
same,Observed (percentage phytotoxicity),[3]; 3.91 g/ha,11%
same,Observed (percentage phytotoxicity),[3]; 31.25 g/ha,21%
same,Observed (percentage phytotoxicity),[3]; 62.5 g/ha,31% and 50%
same,Observed (percentage phytotoxicity),[3]; 125 g/ha,74%
same,Observed (percentage phytotoxicity),[7]; 15.63 g/ha,21%
same,Observed (percentage phytotoxicity),[4]; 3.91 g/ha,4%
same,Observed (percentage phytotoxicity),[4]; 7.81 g/ha,3%
same,Observed (percentage phytotoxicity),[4]; 15.63 g/ha,5%
same,Observed (percentage phytotoxicity),[4]; 31.25 g/ha,11%
same,Observed (percentage phytotoxicity),[4]; 62.5 g/ha,68%
same,Observed (percentage phytotoxicity),[5]; 7.81 g/ha,25% and 34%
same,Observed (percentage phytotoxicity),[5]; 15.63 g/ha,48%
same,Observed (percentage phytotoxicity),[6]; 7.81 g/ha,1% and 0%
same,Observed (percentage phytotoxicity),[6]; 15.63 g/ha,0% and 5%
same,Observed (percentage phytotoxicity),[6]; 31.25 g/ha,1%
same,Observed (percentage phytotoxicity),[6]; 62.5 g/ha,1%
same,Observed (percentage phytotoxicity),Lolium perenne (LOLPE); 3.91 g/ha,8%
same,Observed (percentage phytotoxicity),Lolium perenne (LOLPE); 7.81 g/ha,13%
same,Observed (percentage phytotoxicity),Lolium perenne (LOLPE); 15.63 g/ha,13%
same,Observed (percentage phytotoxicity),Lolium perenne (LOLPE); 31.25 g/ha,35% and 18%
same,Observed (percentage phytotoxicity),Lolium perenne (LOLPE); 62.5 g/ha,43% and 30%
same,Observed (percentage phytotoxicity),Setaria faberi (SETFA); 7.81 g/ha,13%
same,Observed (percentage phytotoxicity),Setaria faberi (SETFA); 15.63 g/ha,11%
same,Observed (percentage phytotoxicity),Setaria faberi (SETFA); 31.25 g/ha,41%
same,Observed (percentage phytotoxicity),Setaria viridis (SETVI); 7.81 g/ha,10%
same,Observed (percentage phytotoxicity),Setaria viridis (SETVI); 15.63 g/ha,26%
same,Observed (percentage phytotoxicity),[8]; 15.63 g/ha,10%
same,Observed (percentage phytotoxicity),[8]; 31.25 g/ha,21%
